Results reported in paper PMC11823630, “In vitro potentiation of tetracyclines in Pseudomonas aeruginosa by RW01, a new cyclic peptide” (Antimicrobial Agents and Chemotherapy, 2024).
In brackets after ≈: the same amount, converted by molar mass.

How the values were obtained:
P. aeruginosa 125A = experiment: MIC, CLSI broth microdilution in BD Phoenix AST Broth; assay type: cell-based, Pseudomonas aeruginosa; conditions: Pseudomonas aeruginosa; strain 125A; agent alone; 37°C, 18–22 h; three biological replicates
Method: (§1) MIC for RW01 was also tested.
(§2) FIC of RW01 (FICRW01)=MIC of RW01 in combination/MIC of RW01 alone,FIC of antibiotic (FICATB)=MIC of ATB in combination/MIC of ATB alone,FICI=FICRW01 +FICATB.
(§3) FICI was interpreted as follows: synergistic effect if FICI is ≤0.5; additive effect if 0.5 < FICI ≤ 1.0; indifferent effect if 1.0 < FICI ≤ 2.0; and finally, antagonistic effect if FICI is >2.0. The average FICI considering the antibiotic MIC (no growth in any of the replicates) at different concentrations of RW01 was calculated ([28]).

P. aeruginosa 125B = experiment: as above; assay type: cell-based, Pseudomonas aeruginosa; conditions: Pseudomonas aeruginosa; strain 125B; agent alone; 37°C, 18–22 h; three biological replicates
Method: as §1, §2, §3

P. aeruginosa 41A = experiment: as above; assay type: cell-based, Pseudomonas aeruginosa; conditions: Pseudomonas aeruginosa; strain 41A; agent alone; 37°C, 18–22 h; three biological replicates
Method: as §1, §2, §3

P. aeruginosa 41B = experiment: as above; assay type: cell-based, Pseudomonas aeruginosa; conditions: Pseudomonas aeruginosa; strain 41B; agent alone; 37°C, 18–22 h; three biological replicates
Method: as §1, §2, §3

P. aeruginosa PAO1 = experiment: as above; assay type: cell-based, Pseudomonas aeruginosa; conditions: Pseudomonas aeruginosa, PAO1, strain PAO1; agent alone; 37°C, 18–22 h; three biological replicates; read-out: MIC
Method: as §1, §2, §3

P. aeruginosa PAOUW = experiment: as above; assay type: cell-based, Pseudomonas aeruginosa; conditions: Pseudomonas aeruginosa, strain PAOUW; agent alone; 37°C, 18–22 h; three biological replicates; read-out: MIC
Method: as §1, §2, §3

P. aeruginosa PAOUW∆oprF = experiment: as above; assay type: cell-based, Pseudomonas aeruginosa; conditions: Pseudomonas aeruginosa, strain PAOUWΔoprF; agent alone; 37°C, 18–22 h; three biological replicates
Method: as §1, §2, §3

P. aeruginosa PAOΔmexR = experiment: as above; assay type: cell-based, Pseudomonas aeruginosa; conditions: Pseudomonas aeruginosa
Method: as §1, §2, §3

P. aeruginosa PAOΔmexZ = experiment: as above; assay type: cell-based, Pseudomonas aeruginosa; conditions: Pseudomonas aeruginosa, strain PAOΔmexZ; agent alone; 37°C, 18–22 h; three biological replicates
Method: as §1, §2, §3

P. aeruginosa PAOΔoprM = experiment: as above; assay type: cell-based, Pseudomonas aeruginosa; conditions: Pseudomonas aeruginosa
Method: as §1, §2, §3

P. aeruginosa PAO1, WT = experiment: MIC, Sensititre custom plate; assay type: cell-based; conditions: Pseudomonas aeruginosa, PAO1, read-out: MIC, Sensititre
Method: (§4) Selection of resistant mutants was performed for minocycline with and without RW01 in three independent replicates for wild-type P. aeruginosa reference strain PAO1. Tubes containing Mueller-Hinton broth (MHB) were inoculated and incubated for 24 h at 37°C. Afterward, 1/100 dilution of each tube was incubated at 37°C in MHB to late-exponential growth phase, measured by spectrophotometry at OD600. […] A control plate without antibiotic was included as inoculum control. After overnight incubation, colony counting of each treatment was performed to analyze the generation of resistant population. The mutant prevention concentration (MPC) was defined as the lowest concentration of antibiotic yielding no growth of resistant mutants. Selected mutants were checked for susceptibility profiles by using a Sensititre custom plate (Thermo Fisher Scientific, Massachusetts, USA) for Gram-negative bacteria, following the manufacturer’s instructions.

[1] = system: PAO1 mutant MIN16_1, nalD(T43P); experiment: MIC, Sensititre custom plate; assay type: cell-based; conditions: Pseudomonas aeruginosa, PAO1, read-out: MIC, Sensititre
Method: as §4

[2] = system: PAO1 mutant MIN16_2, nalC(aa9∆4), pilQ(nt46∆1); experiment: MIC, Sensititre custom plate; assay type: cell-based; conditions: Pseudomonas aeruginosa, PAO1, read-out: MIC, Sensititre
Method: as §4

[3] = system: PAO1 mutant MIN16_3, nfxB(nt79∆14), pilB(N349K); experiment: MIC, Sensititre custom plate; assay type: cell-based; conditions: Pseudomonas aeruginosa, PAO1, read-out: MIC, Sensititre
Method: as §4

[4] = system: PAO1 mutant MIN16_4, nalC(T50P), pilM(Q62X); experiment: MIC, Sensititre custom plate; assay type: cell-based; conditions: Pseudomonas aeruginosa, PAO1, read-out: MIC, Sensititre
Method: as §4

[5] = system: PAO1 mutant MIN1_RW01_1, pmrB(Y98N); experiment: MIC, Sensititre custom plate; assay type: cell-based; conditions: Pseudomonas aeruginosa, PAO1, read-out: MIC, Sensititre
Method: as §4

[6] = system: PAO1 mutant MIN1_RW01_2, mexR(G58E), pilB(G326D), hutC(Y181X); experiment: MIC, Sensititre custom plate; assay type: cell-based; conditions: Pseudomonas aeruginosa, PAO1, read-out: MIC, Sensititre
Method: as §4

[7] = system: PAO1 mutant MIN1_RW01_3, pmrB(V215L); experiment: MIC, Sensititre custom plate; assay type: cell-based; conditions: Pseudomonas aeruginosa, PAO1, read-out: MIC, Sensititre
Method: as §4

[8] = system: PAO1 mutant MIN2_RW01_1, pmrB(V215L); experiment: MIC, Sensititre custom plate; assay type: cell-based; conditions: Pseudomonas aeruginosa, PAO1, read-out: MIC, Sensititre
Method: as §4

[9] = system: PAO1 mutant MIN2_RW01_2, pmrB(M292T); experiment: MIC, Sensititre custom plate; assay type: cell-based; conditions: Pseudomonas aeruginosa, PAO1, read-out: MIC, Sensititre
Method: as §4

[10] = system: PAO1 mutant MIN2_RW01_3, parS(V152A); experiment: MIC, Sensititre custom plate; assay type: cell-based; conditions: Pseudomonas aeruginosa, PAO1, read-out: MIC, Sensititre
Method: as §4

[11] = system: PAO1 mutant MIN2_RW01_4, pmrB(M292T); experiment: MIC, Sensititre custom plate; assay type: cell-based; conditions: Pseudomonas aeruginosa, PAO1, read-out: MIC, Sensititre
Method: as §4

[12] = system: PAO1 mutant MIN32_1, mexR(R63H), pilB(N349K), PA0646(V316G); experiment: MIC, Sensititre custom plate; assay type: cell-based; conditions: Pseudomonas aeruginosa, PAO1, read-out: MIC, Sensititre
Method: as §4

[13] = system: PAO1 mutant MIN4_RW01_1, pmrB(R429H); experiment: MIC, Sensititre custom plate; assay type: cell-based; conditions: Pseudomonas aeruginosa, PAO1, read-out: MIC, Sensititre
Method: as §4

[14] = system: PAO1 mutant MIN4_RW01_3, pmrB(M292T); experiment: MIC, Sensititre custom plate; assay type: cell-based; conditions: Pseudomonas aeruginosa, PAO1, read-out: MIC, Sensititre
Method: as §4

[15] = system: PAO1 mutant MIN4_RW01_4, pmrB(Y98N); experiment: MIC, Sensititre custom plate; assay type: cell-based; conditions: Pseudomonas aeruginosa, PAO1, read-out: MIC, Sensititre
Method: as §4

[16] = system: PAO1 mutant MIN8_1, nalD(R3C), pilM(Q62X); experiment: MIC, Sensititre custom plate; assay type: cell-based; conditions: Pseudomonas aeruginosa, PAO1, read-out: MIC, Sensititre
Method: as §4

[17] = system: PAO1 mutant MIN8_2, pilZ(nt18InsT); experiment: MIC, Sensititre custom plate; assay type: cell-based; conditions: Pseudomonas aeruginosa, PAO1, read-out: MIC, Sensititre
Method: as §4

[18] = system: PAO1 mutant MIN8_3, pilZ(nt18InsT); experiment: MIC, Sensititre custom plate; assay type: cell-based; conditions: Pseudomonas aeruginosa, PAO1, read-out: MIC, Sensititre
Method: as §4

[19] = system: PAO1 mutant MIN8_4, pilZ(nt18InsT); experiment: MIC, Sensititre custom plate; assay type: cell-based; conditions: Pseudomonas aeruginosa, PAO1, read-out: MIC, Sensititre
Method: as §4

[20] = system: PAO1 mutant MIN1_RW01_4, pmrB(F124L); experiment: microbe, parasite or virus in culture; assay type: cell-based; conditions: Pseudomonas aeruginosa, PAO1, read-out: MIC, Sensititre
Method: as §4

[21] = system: PAO1 mutant MIN4_RW01_2, pmrB(F124S); experiment: microbe, parasite or virus in culture; assay type: cell-based; conditions: Pseudomonas aeruginosa, PAO1, read-out: MIC, Sensititre
Method: as §4

SMILES	MIC (P. aeruginosa PAO1, WT) [µg/mL]	MIC [1] [µg/mL]	MIC [2] [µg/mL]	MIC [3] [µg/mL]	MIC [4] [µg/mL]	MIC [5] [µg/mL]	MIC [6] [µg/mL]	MIC [7] [µg/mL]	MIC [8] [µg/mL]	MIC [9] [µg/mL]	MIC [10] [µg/mL]	MIC [11] [µg/mL]	MIC [12] [µg/mL]	MIC [13] [µg/mL]	MIC [14] [µg/mL]	MIC [15] [µg/mL]	MIC [16] [µg/mL]	MIC [17] [µg/mL]	MIC [18] [µg/mL]	MIC [19] [µg/mL]	also measured
C[C@@H](O)[C@H]1C(=O)N2C(C(=O)O)=C(S[C@@H]3CN[C@H](C(=O)N(C)C)C3)[C@H](C)[C@H]12 [Meropenem, meropenem]	1 to 2 (≈ 2.61 to 5.22 µM)	4 (≈ 10.4 µM)	2 (≈ 5.22 µM)	≤ 0.5	2 (≈ 5.22 µM)	1 (≈ 2.61 µM)	4 (≈ 10.4 µM)	1 (≈ 2.61 µM)	1 (≈ 2.61 µM)	1 (≈ 2.61 µM)	2 to 4 (≈ 5.22 to 10.4 µM)	1 (≈ 2.61 µM)	4 (≈ 10.4 µM)	4 (≈ 10.4 µM)	2 (≈ 5.22 µM)	1 (≈ 2.61 µM)	2 (≈ 5.22 µM)	2 (≈ 5.22 µM)	2 (≈ 5.22 µM)	2 (≈ 5.22 µM)	MIC (P. aeruginosa 125A): 0.5 µg/mL; MIC (P. aeruginosa 125B): 0.5 µg/mL; MIC (P. aeruginosa 41A): 4 µg/mL; MIC (P. aeruginosa 41B): 16 µg/mL; MIC (P. aeruginosa PAO1): 0.5 µg/mL; MIC (P. aeruginosa PAOUW): 1 µg/mL; MIC (P. aeruginosa PAOUW∆oprF): 2 µg/mL; MIC (P. aeruginosa PAOΔmexR): 1 µg/mL; MIC (P. aeruginosa PAOΔmexZ): 0.5 µg/mL; MIC (P. aeruginosa PAOΔoprM): 0.125 µg/mL; MIC [20]: 1 µg/mL (≈ 2.61 µM); MIC [21]: ≤ 0.5 µg/mL
NC[C@H]1O[C@H](O[C@H]2[C@H](O)[C@@H](O[C@H]3O[C@H](CO)[C@@H](O)[C@H](N)[C@H]3O)[C@H](N)C[C@@H]2N)[C@H](N)C[C@@H]1O [TOB, tobramycin]	0.25 to 0.5 (≈ 0.535 to 1.07 µM)	0.5 (≈ 1.07 µM)	≤ 0.25	≤ 0.25	≤ 0.25	1 (≈ 2.14 µM)	≤ 0.25	1 (≈ 2.14 µM)	0.5 (≈ 1.07 µM)	0.5 (≈ 1.07 µM)	1 (≈ 2.14 µM)	0.5 (≈ 1.07 µM)	0.25 to 0.5 (≈ 0.535 to 1.07 µM)	0.5 (≈ 1.07 µM)	0.5 (≈ 1.07 µM)	1 (≈ 2.14 µM)	0.5 (≈ 1.07 µM)	0.5 (≈ 1.07 µM)	≤ 0.25	0.5 (≈ 1.07 µM)	MIC [20]: ≤ 0.25 µg/mL; MIC [21]: 0.5 µg/mL (≈ 1.07 µM)
